Results published in paper PMC6362118, “Pharmacophore-guided discovery of CDC25 inhibitors causing cell cycle arrest and tumor regression” (Scientific Reports, 2019).

Key:
PTPN2 (TCPTP) = test: Compound profiling, phosphatase panel (Eurofins); format: biochemical; settings: relative to DMSO
Description: (§1) 125 Compound profiling - Selected compounds were profiled against a panel of protein
(§2) 126 phosphatases at Eurofins Pharma Discovery Services Ltd., Dundee, UK.

MKP5 (DUSP10) = test: Compound profiling, phosphatase panel (Eurofins); format: biochemical; settings: relative to DMSO
Description: as §1, §2

PTPN9 (MEG2) = test: Compound profiling, phosphatase panel (Eurofins); format: biochemical; settings: relative to DMSO
Description: as §1, §2

PTPN7 (HePTP) = test: Compound profiling, phosphatase panel (Eurofins); format: biochemical; settings: relative to DMSO
Description: as §1, §2

DUSP22 = test: Compound profiling, phosphatase panel (Eurofins); format: biochemical; settings: relative to DMSO
Description: as §1, §2

PTPN11 (SHP-2) = test: Compound profiling, phosphatase panel (Eurofins); format: biochemical; settings: relative to DMSO
Description: as §1, §2

PP2A = test: Compound profiling, phosphatase panel (Eurofins); format: biochemical; settings: relative to DMSO
Description: as §1, §2

PTPN6 (SHP-1) = test: Compound profiling, phosphatase panel (Eurofins); format: biochemical; settings: relative to DMSO
Description: as §1, §2

PTPRC (CD45) = test: Compound profiling, phosphatase panel (Eurofins); format: biochemical; settings: relative to DMSO
Description: as §1, §2

PTPN4 (MEG1) = test: Compound profiling, phosphatase panel (Eurofins); format: biochemical; settings: relative to DMSO
Description: as §1, §2

PTPN22 = test: Compound profiling, phosphatase panel (Eurofins); format: biochemical; settings: relative to DMSO
Description: as §1, §2

VHR (DUSP3) = test: Compound profiling, phosphatase panel (Eurofins); format: biochemical; settings: relative to DMSO
Description: as §1, §2

PTPN1 (PTP1B) = test: Compound profiling, phosphatase panel (Eurofins); format: biochemical; settings: relative to DMSO
Description: as §1, §2

PP1a = test: Compound profiling, phosphatase panel (Eurofins); format: biochemical; settings: relative to DMSO
Description: as §1, §2

TMDP (DUSP13) = test: Compound profiling, phosphatase panel (Eurofins); format: biochemical; settings: relative to DMSO
Description: as §1, §2

HCT116 tumors = test: HCT116 tumor xenograft in zebrafish embryos; format: in vivo; settings: for primary tumor size at day 3 relative to day 0: 10 µM in water, three days (day 2 to day 5); for metastasis (tumor cells in caudal hematopoietic plexus): 10 µM, 3 dpi
Description: (§3) Implantation of HCT116 cells into zebrafish embryos were carried out essentially as previously described. Briefly, HCT116 cells were cultured in McCoy’s medium supplemented with 10% FCS and penicillin/streptomycin until ~80% confluence, then labeled for 30 min at 37 °C in 6 μg/mL 1,1′-dioctadecyl-3,3,3′,3′-tetramethylindocarbocyanine perchlorate (DiI, Sigma) in PBS followed by washing 3x in PBS. Labeled cells were implanted in the perivitelline space of 48 hours post-fertilization (hpf) wildtype (AB) zebrafish embryos, kept from the 1-cell stage in 1-phenyl-2-thiourea (PTU)-containing E3-water. […] As control, embryos were incubated in PTU-E3 with 0.1% DMSO (vehicle). Tumor-bearing embryos were incubated at 36 °C for three days and the change in tumor volume was evaluated as the size of the tumors at three days post-implantation (3 dpi) relative to the size immediately after implantation (0 dpi). Metastasis was evaluated at 3 dpi as the number of tumor cells present in the caudal hematopoietic plexus, the main metastatic site for tumors implanted in the perivitelline space.

zebrafish embryos = format: in vivo; settings: 10 µM (effective dose)
Description: as §3

[1] = test system: Apc/K-Ras intestinal organoids; test: Growth and differentiation of Apc/K-Ras intestinal organoids; format: cell-based, mouse
Description: Intestinal crypts were isolated from Apc/K-Ras animals bearing Apc^1638N and villin-driven K-Ras^G12V alleles with slight modifications[36] of a previously described method. Briefly, crypts were isolated and purified, embedded in 50 μl matrigel drops (Corning, 356231) and overlaid with 500 μl organoid medium Advanced DMEM/F12 (Life Technologies, 11320-082) containing 2 mM GlutaMAX (Life Technologies, 35050-061), 10 mM HEPES buffer (Sigma, 83264-100ML-F), 0.5 U/ml Penicillin/Streptomycin (Life Technologies, 15070-063), N2 (Life Technologies, 17502-048), B27 (Life Technologies, 12587-010)]. Organoids were expanded for 5 days in growth factor supplemented medium containing 50 ng/ml mEGF (Life Technologies, PMG8041), 100 ng/ml mNoggin (Peprotech, 250–38) and 500 ng/ml hRSPO1 (R&D, 4645-RS-025). EGF and R-spondin were subsequently removed to select for organoids that had lost the wild-type Apc copy. The medium was changed every 2 days. Established mutant lines were passaged every four days by mechanical disruption with a bent P1000 pipette tip.
34 SUPPLEMENTARY MATERIALS AND METHODS
36 Antibodies and chemicals - The following antibodies were used for Western blot:
37 Rabbit monoclonal antibodies to CDK1-pThr14 (#2543), CDK1-pTyr15 (#9111), Histone
39 Technology (Beverly, MA, USA). Mouse monoclonal antibodies to CDC25A (F-6, sc-
41 from Santa Cruz Biotechnology (Santa Cruz, CA, USA). The mouse monoclonal
42 antibody MPM2 (05-368) was from Upstate (Lake Placid, NY, USA). The mouse
43 monoclonal antibody to the HA tag (HA.11, MMS-101P) was from BioLegend (S. Diego,
44 CA, USA). The rabbit polyclonal antibody to PARP-1 (#227244) was obtained from
45 Abcam. HRP-conjugated anti-mouse and anti-rabbit secondary antibodies were obtained
46 from GE-Healthcare (Otelfingen, Switzerland). HRP-conjugated IgG-k-BP was
47 purchased from Santa Cruz Biotechnology (Santa Cruz, CA, USA).
48 The following antibodies were used for immunofluorescence on a Zeiss LSM 710
49 confocal microscope: mouse monoclonal to beta-catenin (Cl. 14, BD transduction Lab.),
50 rabbit polyclonal to lysozyme (A0099, Dako). […]

COc1cccc(SC2=CC(=O)c3cccc(O)c3C2=O)c1 [UPD-795, 2-(3-methoxyphenylthio)-8-hydroxynaphthalene-1,4-dione]
remaining activity (%) (PTPN2 (TCPTP); UPD-795 1 µM): 99 ± 2%
remaining activity (%) (MKP5 (DUSP10); UPD-795 1 µM): 107 ± 1%
remaining activity (%) (PTPN9 (MEG2); UPD-795 1 µM): 85 ± 5%
remaining activity (%) (PTPN7 (HePTP); UPD-795 1 µM): 87 ± 2%
remaining activity (%) (DUSP22; UPD-795 1 µM): 92 ± 3%
remaining activity (%) (PTPN11 (SHP-2); UPD-795 1 µM): 91 ± 14%
remaining activity (%) (PP2A; UPD-795 1 µM): 94 ± 1%
remaining activity (%) (PTPN6 (SHP-1); UPD-795 1 µM): 80 ± 3%
remaining activity (%) (PTPRC (CD45); UPD-795 1 µM): 97 ± 2%
remaining activity (%) (PTPN4 (MEG1); UPD-795 1 µM): 94 ± 1%
remaining activity (%) (PTPN22; UPD-795 1 µM): 98 ± 1%
remaining activity (%) (VHR (DUSP3); UPD-795 1 µM): 108 ± 4%
remaining activity (%) (PTPN1 (PTP1B); UPD-795 1 µM): 94 ± 7%
remaining activity (%) (PP1a; UPD-795 1 µM): 88 ± 1%
remaining activity (%) (TMDP (DUSP13); UPD-795 1 µM): 100%

O=C1C(c2ccc(O)cc2O)=CC(=O)c2c(O)cccc21 [UPD-176, 5-hydroxy-2-(2,4-dihydroxyphenyl)naphthalene-1,4-dione]
primary tumor size at day 3 relative to day 0 (HCT116 tumors): tendency towards tumor regression, although not significant
metastasis (tumor cells in caudal hematopoietic plexus) (HCT116 tumors): did not appear to be significant
tolerability / overt toxicity (zebrafish embryos): well tolerated
expression of lysozyme (differentiation marker), confocal immunofluorescence ([1]; 5 μM): augmented expression of lysozyme
organoid morphology ([1]; 5 μM, 48 h): growing spheroids partially invaginated
organoid death ([1]; higher doses (data not shown)): massive death

O=C1C=C(c2ccc(O)cc2O)C(=O)c2c(O)cccc21 [UPD-140, 2-(2′,4′-dihydroxyphenyl)-8-hydroxy-1,4-naphthoquinone]
primary tumor size at day 3 relative to day 0 (HCT116 tumors): reduced to approximately half the size of the initial volume
metastasis (tumor cells in caudal hematopoietic plexus) (HCT116 tumors): reduction in metastasis achieved borderline significance
tolerability / overt toxicity (zebrafish embryos): well tolerated
remaining activity (%) (PTPN2 (TCPTP); UPD-140 1.5 µM): 87 ± 8%
remaining activity (%) (MKP5 (DUSP10); UPD-140 1.5 µM): 109%
remaining activity (%) (PTPN9 (MEG2); UPD-140 1.5 µM): 89%
remaining activity (%) (PTPN7 (HePTP); UPD-140 1.5 µM): 95%
remaining activity (%) (DUSP22; UPD-140 1.5 µM): 90 ± 4%
remaining activity (%) (PTPN11 (SHP-2); UPD-140 1.5 µM): 96 ± 2%
remaining activity (%) (PP2A; UPD-140 1.5 µM): 95 ± 2%
remaining activity (%) (PTPN6 (SHP-1); UPD-140 1.5 µM): 78 ± 2%
remaining activity (%) (PTPRC (CD45); UPD-140 1.5 µM): 103 ± 2%
remaining activity (%) (PTPN4 (MEG1); UPD-140 1.5 µM): 87 ± 1%
remaining activity (%) (PTPN22; UPD-140 1.5 µM): 99 ± 5%
remaining activity (%) (VHR (DUSP3); UPD-140 1.5 µM): 106 ± 4%
remaining activity (%) (PTPN1 (PTP1B); UPD-140 1.5 µM): 95 ± 5%
remaining activity (%) (PP1a; UPD-140 1.5 µM): 89 ± 2%
remaining activity (%) (TMDP (DUSP13); UPD-140 1.5 µM): 105 ± 4%
